Results published in ChEMBL document CHEMBL1150244, “Periglaucines A-D, anti-HBV and -HIV-1 alkaloids from Pericampylus glaucus” (J Nat Prod, 2008).

Assays:
[1] = Cytotoxicity against human HepG2.2.15 cells by MTT assay; type: cell-based, HepG2 2.2.15
Hepatitis B virus [2] = test: Antiviral activity against HBV assessed as inhibition of viral surface antigen secretion in HepG2.2.15 cells by ELISA; type: functional, organism-based; details: HepG2 2.2.15
Hepatitis B virus [3] = test: Antiviral activity against HBV assessed as inhibition of viral e-antigen secretion in HepG2.2.15 cells by ELISA; type: functional, organism-based; details: HepG2 2.2.15
[4] = tested on: Human immunodeficiency virus 1; test: Antiviral activity against HIV1 in human C8166 cells assessed as protection against viral-induced cytopathic effect by syncytium reduction assay; type: functional, organism-based; details: Human immunodeficiency virus 1, C8166
[5] = Selectivity index, ratio of CC50 for human C8166 cells to EC50 for HIV1; type: toxicity, cell-based; details: read-out: Ratio CC50/EC50
[6] = Selectivity index, ratio of CC50 for human HepG2.2.15 cells to IC50 for HBV surface antigen secretion; type: functional
[7] = Selectivity index, ratio of CC50 for human HepG2.2.15 cells to IC50 for HBV e-antigen secretion; type: functional
[8] = Cytotoxicity against human C8166 cells after 72 hrs by MTT assay; type: cell-based

SMILES	CC50 [1]	IC50 (Hepatitis B virus [2])	IC50 (Hepatitis B virus [3])	EC50 [4]	selectivity ratio [5]	Ratio CC50/IC50 [6]	Ratio CC50/IC50 [7]	CC50 at 72 h [8]
COc1ccc2c(c1OC)C(=O)N1CCc3cc4c(cc3[C@@H]1C2)OCO4	> 3.4 mM	> 3400 µM	> 3.4 mM	–	–	–	–	–
Cc1cn([C@H]2C[C@H](N=[N+]=[N-])[C@@H](CO)O2)c(=O)[nH]c1=O [ZIDOVUDINE]	–	–	–	0.0108 µM	471	–	–	–
CO[C@H]1C(=O)C[C@]23CCN(C)[C@@]24C[C@@H](O[C@]14OC)c1cc2c(cc13)OCO2 [PERIGLAUCINE B]	0.64 mM	470 µM	3.09 mM	389 µM	1.61	1.36	<1	> 536 µM
CO[C@@H]1C(=O)C[C@]23CC(=O)N(C)[C@@]24C[C@@H](O[C@]14OC)c1cc2c(cc13)OCO2 [PERIGLAUCINE C]	2.36 mM	1720 µM	> 3.69 mM	162 µM	3.29	1.37	<1	> 516 µM
COc1c(OC)c2c3c(nccc3c1OC)-c1cc(O)ccc1-2 [IMERUBRINE]	> 3.88 mM	930 µM	> 3.88 mM	10.9 µM	45.7	>4.17	–	493 µM
CO[C@@H]1C(=O)C[C@]23CCN(C)[C@@]24C[C@@H](O[C@]14OC)c1cc2c(cc13)OCO2 [PERIGLAUCINE A]	2.96 mM	1040 µM	3.41 mM	204 µM	4.03	2.85	<1	> 536 µM
COc1cc2c(cc1OC)[C@@H]1Cc3ccc(OC)c(OC)c3C(=O)N1CC2	3 mM	140 µM	> 7.47 mM	14.1 µM	18.8	22.4	<1	307 µM
CO[C@@H]1C(=O)C[C@]23C[C@H](CC(C)=O)N(C)[C@@]24C[C@@H](O[C@]14OC)c1cc2c(cc13)OCO2 [PERIGLAUCINE D]	2.06 mM	670 µM	3.01 mM	334 µM	1.65	3.07	<1	> 466 µM
